Data taken from US20220133846A1, “NOVEL ANTIMICROBIAL COMPOUND AND USES THEREOF” (priority 2019, published 2022).
In brackets after ≈: the same amount, converted by molar mass. Several values for one entry are separate records, joined by “and”; a condition that tells them apart may be missing. Equal entries are not always repeated. Where two headings read alike, the source gives them in different places.

Columns and labels:
[1] = test system: Acinetobacter calcoaceticus; assay: MIC against clinical isolates (Christiana Hospital); format: cell-based; settings: clinical strain CH37, drug resistance N
Acinetobacter modestus = assay: as above; format: cell-based; settings: clinical strain CH43, drug resistance N
Acinetobacter baumannii [2] = assay: microbe, parasite or virus in culture
Acinetobacter septicus = assay: MIC against clinical isolates (Christiana Hospital); format: cell-based; settings: clinical strain CH44, drug resistance N
Acinetobacter ursingii = assay: as above; format: cell-based; settings: clinical strain CH41, drug resistance N
Acinetobacter guillouiae = assay: as above; format: cell-based; settings: clinical strain CH42, drug resistance N
[3] = test system: broad spectrum of Gram-positive bacteria; settings: cited from earlier work
[4] = test system: S. aureus (SA) and MRSA biofilms; format: cell-based
[5] = test system: S. aureus NRS 384 (USA300-0114); assay: Murine neutropenic thigh infection model; format: in vivo, mice; settings: 25 mg/kg, both studies
Acinetobacter baumannii [6] = test system: Acinetobacter baumannii
A. baumannii (CH-46) = assay: Frequency of resistance (FoR) in vitro; format: cell-based
S. aureus = assay: Prevention of biofilm formation by pre-coating wells; format: cell-based; settings: data not shown

## C[C@@H](O)[C@H]1C(=O)N2C(C(=O)O)=C(SCCN=CN)C[C@H]12 [Imipenem]
[1]; Acinetobacter calcoaceticus, read-out: MIC
  MIC: 0.5 µg/mL (≈ 1.67 µM)
Acinetobacter modestus; Acinetobacter modestus, read-out: MIC
  MIC: 0.5 µg/mL (≈ 1.67 µM)
Acinetobacter baumannii [2]; clinical strain CH36, drug resistance N
  MIC: 250 µg/mL (≈ 835 µM)
Acinetobacter baumannii [2]; clinical strain CH38, drug resistance N
  MIC: 125 µg/mL (≈ 418 µM)
Acinetobacter baumannii [2]; clinical strain CH39, drug resistance N
  MIC: 15.6 µg/mL (≈ 52.2 µM)
Acinetobacter baumannii [2]; clinical strain CH40, drug resistance N
  MIC: 31.2 µg/mL (≈ 104 µM)
Acinetobacter baumannii [2]; clinical strain CH45, drug resistance Y
  MIC: 125 µg/mL (≈ 418 µM)
Acinetobacter baumannii [2]; clinical strain CH46, drug resistance Y
  MIC: 250 µg/mL (≈ 835 µM)
Acinetobacter baumannii [2]; clinical strain CH47, drug resistance Y
  MIC: 3.91 µg/mL (≈ 13.1 µM)
Acinetobacter baumannii [2]; clinical strain CH48, drug resistance Y
  MIC: 7.81 µg/mL (≈ 26.1 µM)
Acinetobacter baumannii [2]; clinical strain CH49, drug resistance Y
  MIC: 62.5 µg/mL (≈ 209 µM)
Acinetobacter baumannii [2]; clinical strain CH50, drug resistance Y
  MIC: 62.5 µg/mL (≈ 209 µM)
Acinetobacter baumannii [2]; clinical strain CH51, drug resistance Y
  MIC: 31.2 µg/mL (≈ 104 µM)
Acinetobacter baumannii [2]; clinical strain CH52, drug resistance Y
  MIC: 31.2 µg/mL (≈ 104 µM)
Acinetobacter baumannii [2]; clinical strain CH53, drug resistance Y
  MIC: 31.2 µg/mL (≈ 104 µM)
Acinetobacter baumannii [2]; clinical strain CH54, drug resistance Y
  MIC: 7.81 µg/mL (≈ 26.1 µM)
Acinetobacter baumannii [2]; clinical strain CH55, drug resistance Y
  MIC: 46.9 µg/mL (≈ 157 µM)
Acinetobacter septicus; Acinetobacter septicus, read-out: MIC
  MIC: 1.46 µg/mL (≈ 4.88 µM)
Acinetobacter ursingii; Acinetobacter ursingii, read-out: MIC
  MIC: 1 µg/mL (≈ 3.34 µM)
Acinetobacter guillouiae; Acinetobacter guillouiae, read-out: MIC
  MIC: 7.81 µg/mL (≈ 26.1 µM)

## C=C1NC(=O)CC[C@@H](C(=O)O)NC(=O)[C@H](NC(=O)[C@H](CCCCN)NC(=O)[C@@H](N)Cc2c[nH]c3ccccc23)CSC[C@@H](C(=O)N[C@@H]2C(=O)N3CCC[C@H]3C(=O)NCC(=O)N[C@H](C(=O)N[C@H](C(=O)N[C@@H]3C(=O)NCC(=O)N[C@@H](C)C(=O)N[C@@H](CC(C)C)C(=O)N[C@@H](CCC(N)=O)C(=O)N/C(=C/C)C(=O)N[C@H](C(=O)N[C@@H](Cc4ccccc4)C(=O)N[C@@H](CC(C)C)C(=O)N[C@@H](CCC(N)=O)C(=O)N[C@@H]4C(=O)N[C@@H](CC(C)C)C(=O)N[C@H]5C(=O)N[C@@H](CSC4C)C(=O)NC(=O)[C@H](CC(N)=O)N[C@H](C(=O)N[C@@H](CCCCN)C(=O)N[C@H](C(=O)NC(=C)C(=O)N[C@@H](CCCCN)C(=O)O)[C@@H](C)CC)CSC5C)CSC3C)C(C)C)CSC2C)N[C@@H](CC(C)C)C(=O)NC1=O (some centres unmarked) [subtilin]
[3]
  Antimicrobial activity: nanomolar range

## CN[C@H](CC(C)C)C(=O)N[C@H]1C(=O)N[C@@H](CC(N)=O)C(=O)N[C@H]2C(=O)N[C@H]3C(=O)N[C@H](C(=O)N[C@H](C(=O)O)c4cc(O)cc(O)c4-c4cc3ccc4O)[C@H](O)c3ccc(c(Cl)c3)Oc3cc2cc(c3O[C@@H]2O[C@H](CO)[C@@H](O)[C@H](O)[C@H]2O[C@H]2C[C@](C)(N)[C@H](O)[C@H](C)O2)Oc2ccc(cc2Cl)[C@H]1O [vancomycin, reference compound]
[4]
  Effect on viability of pre-formed biofilm: not effective
[5]
  Bacterial load relative to pre-treatment levels: reduced bacterial load to or below pre-treatment levels

## Colistin
[1]
  MIC: 3.91 µg/mL
Acinetobacter baumannii [6]
  MIC: 3.91 µg/mL and 5.86 µg/mL and 7.81 µg/mL
Acinetobacter modestus
  MIC: 7.81 µg/mL
Acinetobacter septicus
  MIC: 1.95 µg/mL
A. baumannii (CH-46); 2X MIC
  Frequency of resistance (FoR): 2.7 × 10^−7
A. baumannii (CH-46); 3X MIC
  Frequency of resistance (FoR): 3.7 × 10^−8
A. baumannii (CH-46); 4X MIC
  Frequency of resistance (FoR): 5.2 × 10^−8
A. baumannii (CH-46); 5X MIC
  Frequency of resistance (FoR): 5.4 × 10^−8
A. baumannii (CH-46); 10X MIC
  Frequency of resistance (FoR): 2.0 × 10^−9
Acinetobacter ursingii
  MIC: 1.95 µg/mL
Acinetobacter guillouiae
  MIC: 3.91 µg/mL

B1: platelet factor 4: a control cationic peptide (protein, UniProt P02776 32-101, looked up)
Platelet factor 4: EAEEDGDLQCLCVKTTSQVRPRHITSLEVIKAGPHCPTAQLIATLKNGRKICLDLQAPLYKKIIKKLLES
S. aureus
  Effect of coating wells on S. aureus attachment: no effect
